Reference: patent US20260007675A1, “TARGETING CHROMATIN REGULATORS INHIBITS LEUKEMOGENIC GENE EXPRESSION IN NPM1 MUTANT LEUKEMIA” (MEMORIAL SLOAN KETTERING CANCER CENTER, priority 2016, published 2026)

Legend:
[1] = system: Npm1CA/+RosaSB/+ leukemia cells; assay: Transplantation of ex vivo pretreated Npm1CA/+RosaSB/+ leukemia cells (leukemia initiating potential); type: in vivo, mice; details: for survival compared to vehicle control: pretreated Npm1CA/+RosaSB/+ cells, single compound
Protocol: As HOX gene expression is associated with self-renewal properties, the inventors next determined whether pharmacological DOT1L inhibition inhibits NPM1^mut leukemia initiation in mice. Murine Npm1^CA/+Rosa^SB/+ leukemia cells were treated ex vivo with EPZ4777 or drug vehicle for 10 days and equal numbers of viable cells were transplanted into sublethally irradiated recipient animals.
Npm1^CA/+Flt3^ITD/+ and Npm1^CA/+Rosa^SB/+ cells were harvested from moribund leukemic animals and transplanted into primary and secondary recipient mice as previously described. […] All transplantation experiments with ex vivo treated cells were performed as secondary transplantations.

[2] = system: OCI-AML3 cells; assay: Cell viability / proliferation assay in OCI-AML3 cells; type: cell-based, human
Protocol: (§1) Proliferation assays were performed as previously described. Viable cell counts were determined by flow cytometry using Sytox Blue (Invitrogen) or DAPI viability stains.

[3] = system: OCI-AML3 cells; assay: OCI-AML3 xenotransplantation model in NSG mice; type: in vivo; details: MI-503 50 mg/kg bid IP, versus vehicle
[4] = system: HOX, MEIS1 and FLT3 expression in OCI-AML3 cells; assay: Gene expression (quantitative PCR / RNA sequencing) in OCI-AML3 cells; type: cell-based, human
[5] = system: menin, H3K4me3 and H3K79me2 at HOX and MEIS1 loci in OCI-AML3 cells; assay: Chromatin immunoprecipitation-qPCR and immunoblotting of chromatin marks in OCI-AML3 cells; type: cell-based, human; details: OCI-AML3, EPZ4777 10 μM
[6] = system: Npm1CA/+RosaSB/+ and Npm1CA/+Flt3ITD/+ leukemia cells; assay: Colony forming and liquid culture proliferation assays in murine NPM1mut leukemia cells; type: cell-based; details: EPZ4777 10 μM
Protocol: For drug testing experiments, leukemic blasts were harvested from moribund primarily transplanted mice and cultured in vitro.
as §1
RNA and DNA purification, cDNA synthesis, quantitative real-time (qRT-) PCR, western blotting, flow cytometry, colony forming assays, viral transduction and shRNA based knock down experiments were performed using standard procedures. Primer sequences, western antibodies, and plasmids are also listed in the supplement.

[7] = system: HL-60 cells; assay: Cell viability / proliferation assay in HL-60 cells; type: cell-based, human
Protocol: as §1

[8] = system: Hoxa9-Meis1 transformed cells; assay: Colony forming assay in Hoxa9-Meis1 transformed cells; type: cell-based, murine; details: Hoxa9-Meis1 in vitro transformed cells, EPZ4777 10 μM
[9] = target: DOT1L (Homo sapiens (Human), UniProt Q8TEK3); details: cited from earlier work
[10] = system: OCI-AML3 cells; assay: Cell differentiation by CD11b flow cytometry in OCI-AML3 cells; type: cell-based, human; details: OCI-AML3, MI-2-2 12 μM, day seven of treatment
[11] = OCI-AML3, 4 days of MI-2-2 treatment (12 μM)

Sequence of DOT1L (Q8TEK3 whole entry): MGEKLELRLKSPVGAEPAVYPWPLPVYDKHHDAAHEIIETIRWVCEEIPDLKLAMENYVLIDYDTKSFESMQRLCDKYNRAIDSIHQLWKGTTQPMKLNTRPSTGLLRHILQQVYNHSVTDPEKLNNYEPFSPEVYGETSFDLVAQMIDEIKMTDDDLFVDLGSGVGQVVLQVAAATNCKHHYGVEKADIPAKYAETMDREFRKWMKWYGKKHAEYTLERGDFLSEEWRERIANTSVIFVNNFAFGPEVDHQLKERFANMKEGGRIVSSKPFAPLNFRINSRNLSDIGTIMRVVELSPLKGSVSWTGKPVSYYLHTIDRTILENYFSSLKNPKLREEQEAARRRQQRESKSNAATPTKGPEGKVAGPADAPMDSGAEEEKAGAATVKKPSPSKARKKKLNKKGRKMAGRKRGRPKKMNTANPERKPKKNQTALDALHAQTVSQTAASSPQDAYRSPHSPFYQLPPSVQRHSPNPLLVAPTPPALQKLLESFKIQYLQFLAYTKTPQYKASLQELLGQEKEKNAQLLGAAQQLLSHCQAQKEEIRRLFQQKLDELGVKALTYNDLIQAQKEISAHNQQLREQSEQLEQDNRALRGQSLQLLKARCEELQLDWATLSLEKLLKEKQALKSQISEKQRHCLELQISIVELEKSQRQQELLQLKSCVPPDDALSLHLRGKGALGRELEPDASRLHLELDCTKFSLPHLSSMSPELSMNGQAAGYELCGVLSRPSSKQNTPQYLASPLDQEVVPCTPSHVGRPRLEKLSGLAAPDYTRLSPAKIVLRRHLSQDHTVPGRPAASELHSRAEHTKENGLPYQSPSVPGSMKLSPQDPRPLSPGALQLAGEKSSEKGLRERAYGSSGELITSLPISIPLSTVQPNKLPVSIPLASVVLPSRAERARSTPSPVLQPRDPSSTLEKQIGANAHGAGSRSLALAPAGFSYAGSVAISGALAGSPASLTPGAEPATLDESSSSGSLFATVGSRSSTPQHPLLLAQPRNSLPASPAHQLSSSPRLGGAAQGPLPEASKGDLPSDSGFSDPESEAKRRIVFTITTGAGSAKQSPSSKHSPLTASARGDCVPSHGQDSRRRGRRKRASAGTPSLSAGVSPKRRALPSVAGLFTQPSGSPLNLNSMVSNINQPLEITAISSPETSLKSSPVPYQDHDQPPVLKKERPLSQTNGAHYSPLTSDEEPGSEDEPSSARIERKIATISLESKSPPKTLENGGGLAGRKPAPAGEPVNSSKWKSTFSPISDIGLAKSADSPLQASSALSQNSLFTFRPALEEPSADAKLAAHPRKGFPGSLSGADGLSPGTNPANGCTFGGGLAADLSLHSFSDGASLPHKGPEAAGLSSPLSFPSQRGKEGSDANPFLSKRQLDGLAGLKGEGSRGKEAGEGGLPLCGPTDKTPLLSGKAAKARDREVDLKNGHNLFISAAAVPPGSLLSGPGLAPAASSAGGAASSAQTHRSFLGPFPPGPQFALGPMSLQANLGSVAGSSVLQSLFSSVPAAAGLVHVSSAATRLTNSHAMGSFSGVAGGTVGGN

Compound | survival compared to vehicle control [1] | potency compared with MI-2-2 (dose response curves) ([2]; human and murine NPM1mut leukemia cells) | leukemia burden (percentage of bone marrow cells expressing human CD45) ([3]; 7 and 12 days) | HOXB4, MEIS1 and FLT3 expression in sorted human CD45 positive cells [3] | WBC counts at time of disease onset within the control group ([1]; cells treated ex vivo with EPZ4777 for 10 days) | survival of recipient animals ([1]; cells treated ex vivo with EPZ4777 for 10 days, versus vehicle) | FLT3 expression ([4]; EPZ4777 10 μM, 7 days, all NPM1mut models) | HOX gene expression ([4]; EPZ4777 10 μM, 7 days, human and murine models) | H3K79me2 marks (immunoblotting and ChIP-PCR) [5] | cell proliferation and colony forming potential [6] | cell proliferation ([2]; human NPM1mut leukemia cells (OCI-AML3), EPZ4777 10 μM) | cell proliferation ([7]; HL-60, EPZ4777 10 μM) | colony forming potential [8] | specificity for DOT1L as compared to other methyl transferases [9] | FLT3 transcript levels [4, 11] | HOXA, HOXB cluster and MEIS1 gene expression [4, 11] | cell proliferation ([2]; OCI-AML3, dose response, 11 days of MI-2-2 treatment) | CD11b expression [10] [%] | cell growth inhibition ([7]; HL-60 (no NPM1mut or MLL-rearrangement), MI-2-2 dose response)
Cc1c(CN2CCC(Nc3ncnc4sc(CC(F)(F)F)cc34)CC2)ccc2c1cc(C#N)n2Cc1cn[nH]c1 [MI-503] | significantly prolonged survival | higher potency | significantly reduced | dramatic decrease of expression levels | – | – | – | – | – | – | – | – | – | – | – | – | – | – | –
CC(C)N(CCCNC(=O)Nc1ccc(C(C)(C)C)cc1)C[C@H]1O[C@@H](n2ccc3c(N)ncnc32)[C@H](O)[C@@H]1O [EPZ4777] | significantly prolonged survival | – | – | – | significantly lower WBC counts | significant survival advantage | dramatic suppression | significant repression | global and HOXA and HOXB loci specific reduction | profound reduction | profound reduction | unaffected | unaffected | highly specific for DOT1L | – | – | – | – | –
CC1(C)CN=C(N2CCN(c3ncnc4sc(CC(F)(F)F)cc34)CC2)S1 [MI-2-2] | – | – | – | – | – | – | – | – | – | – | – | – | – | – | substantially and highly significantly suppressed | significant down regulation | profound dose-dependent reduction in cell proliferation | 72 | only a mild cell growth inhibitory effect at higher doses
